# Experimental data as given in ChEMBL document CHEMBL3885881, “DrugMatrix”.
# Species: Rattus norvegicus
# Test: DrugMatrix - Regimen: Daily Repeat
# Format: toxicity, organism-based, Sprague-Dawley
# Set-up: regimen Daily Repeat, gender Male, age 6-8 weeks
# Details: in vivo, po, route oral GAVAGE, […]; for ABSOLUTE BASOPHIL / ABSOLUTE EOSINOPHIL / ABSOLUTE LYMPHOCYTE / ABSOLUTE MONOCYTE / ABSOLUTE SEGMENTED NEUTROPHIL / BASOPHIL / EOSINOPHIL / ERYTHROCYTE COUNT / HEMATOCRIT / HEMOGLOBIN / LEUKOCYTE COUNT / LYMPHOCYTE / MEAN CORPUSCULAR HEMOGLOBIN / MEAN CORPUSCULAR HEMOGLOBIN CONCENTRATION / MEAN CORPUSCULAR VOLUME / MONOCYTE / NEUTROPHIL / NUCLEATED RED BLOOD CELLS / PLATELET COUNT: tissue Blood; for ALANINE AMINOTRANSFERASE / ALBUMIN / ALKALINE PHOSPHATASE / ASPARTATE AMINOTRANSFERASE / BLOOD UREA NITROGEN / CARBON DIOXIDE / CHLORIDE / CHOLESTEROL / CREATINE PHOSPHOKINASE / CREATININE / GLUCOSE / LACTATE DEHYDROGENASE / LIPASE / PHOSPHORUS / POTASSIUM / SODIUM / TOTAL BILIRUBIN / TOTAL PROTEIN / URIC ACID: tissue Plasma
# [1] = 25 mg/kg, 72 h, dose level Low, time 3 day
# [2] = 25 mg/kg, 120 h, dose level Low, time 5 day
# [3] = 100 mg/kg, 72 h, dose level High, time 3 day
# [4] = 100 mg/kg, 120 h, dose level High, time 5 day
smiles,measurement,setting,value
CN(C)CCCN1c2ccccc2Sc2ccccc21 [PROMAZINE],ABSOLUTE BASOPHIL,[1],0 CELLS/uL
same,ABSOLUTE EOSINOPHIL,[1],145.33 CELLS/uL
same,ABSOLUTE LYMPHOCYTE,[1],11142.33 CELLS/uL
same,ABSOLUTE MONOCYTE,[1],92 CELLS/uL
same,ABSOLUTE SEGMENTED NEUTROPHIL,[1],1153.67 CELLS/uL
same,BASOPHIL,[1],0%
same,EOSINOPHIL,[1],0.67%
same,ERYTHROCYTE COUNT,[1],5.31 x10E6/uL
same,HEMATOCRIT,[1],33.93%
same,HEMOGLOBIN,[1],13.5 G/DL
same,LEUKOCYTE COUNT,[1],12.53 x10E3/uL
same,LYMPHOCYTE,[1],87.67%
same,MEAN CORPUSCULAR HEMOGLOBIN,[1],25.47 pg
same,MEAN CORPUSCULAR HEMOGLOBIN CONCENTRATION,[1],39.77 G/DL
same,MEAN CORPUSCULAR VOLUME,[1],63.93 fL
same,MONOCYTE,[1],1.33%
same,NEUTROPHIL,[1],10.33%
same,NUCLEATED RED BLOOD CELLS,[1],0.67 /100WBC
same,PLATELET COUNT,[1],1124.33 x10E3/uL
same,ALANINE AMINOTRANSFERASE,[1],95 u/L
same,ALBUMIN,[1],4.03 G/DL
same,ALKALINE PHOSPHATASE,[1],542.33 u/L
same,ASPARTATE AMINOTRANSFERASE,[1],104 u/L
same,BLOOD UREA NITROGEN,[1],14 mg/dL
same,CARBON DIOXIDE,[1],32 mmol/L
same,CHLORIDE,[1],101.67 MEQ/L
same,CHOLESTEROL,[1],76.67 mg/dL
same,CREATINE PHOSPHOKINASE,[1],359.33 u/L
same,CREATININE,[1],0.17 mg/dL
same,GLUCOSE,[1],185.67 mg/dL
same,LACTATE DEHYDROGENASE,[1],147.67 u/L
same,LIPASE,[1],9.33 u/L
same,PHOSPHORUS,[1],12.17 mg/dL
same,POTASSIUM,[1],6.17 MEQ/L
same,SODIUM,[1],143.27 MEQ/L
same,TOTAL BILIRUBIN,[1],0.17 mg/dL
same,TOTAL PROTEIN,[1],5.57 G/DL
same,URIC ACID,[1],1.23 mg/dL
same,ABSOLUTE BASOPHIL,[2],0 CELLS/uL
same,ABSOLUTE EOSINOPHIL,[2],84.33 CELLS/uL
same,ABSOLUTE LYMPHOCYTE,[2],7389.33 CELLS/uL
same,ABSOLUTE MONOCYTE,[2],65.33 CELLS/uL
same,ABSOLUTE SEGMENTED NEUTROPHIL,[2],894.33 CELLS/uL
same,BASOPHIL,[2],0%
same,EOSINOPHIL,[2],1%
same,ERYTHROCYTE COUNT,[2],5.37 x10E6/uL
same,HEMATOCRIT,[2],34.2%
same,HEMOGLOBIN,[2],13.47 G/DL
same,LEUKOCYTE COUNT,[2],8.43 x10E3/uL
same,LYMPHOCYTE,[2],88.67%
same,MEAN CORPUSCULAR HEMOGLOBIN,[2],25.1 pg
same,MEAN CORPUSCULAR HEMOGLOBIN CONCENTRATION,[2],39.4 G/DL
same,MEAN CORPUSCULAR VOLUME,[2],63.67 fL
same,MONOCYTE,[2],0.67%
same,NEUTROPHIL,[2],9.67%
same,NUCLEATED RED BLOOD CELLS,[2],0.33 /100WBC
same,PLATELET COUNT,[2],1228.67 x10E3/uL
same,ALANINE AMINOTRANSFERASE,[2],54.33 u/L
same,ALBUMIN,[2],4.17 G/DL
same,ALKALINE PHOSPHATASE,[2],463.67 u/L
same,ASPARTATE AMINOTRANSFERASE,[2],73.33 u/L
same,BLOOD UREA NITROGEN,[2],15 mg/dL
same,CARBON DIOXIDE,[2],28.33 mmol/L
same,CHLORIDE,[2],103.33 MEQ/L
same,CHOLESTEROL,[2],61.67 mg/dL
same,CREATINE PHOSPHOKINASE,[2],324.67 u/L
same,CREATININE,[2],0.27 mg/dL
same,GLUCOSE,[2],188.67 mg/dL
same,LACTATE DEHYDROGENASE,[2],154 u/L
same,LIPASE,[2],10.33 u/L
same,PHOSPHORUS,[2],12.03 mg/dL
same,POTASSIUM,[2],5.86 MEQ/L
same,SODIUM,[2],145.6 MEQ/L
same,TOTAL BILIRUBIN,[2],0.23 mg/dL
same,TOTAL PROTEIN,[2],5.97 G/DL
same,URIC ACID,[2],1.8 mg/dL
same,ABSOLUTE BASOPHIL,[3],0 CELLS/uL
same,ABSOLUTE EOSINOPHIL,[3],0 CELLS/uL
same,ABSOLUTE LYMPHOCYTE,[3],15637.67 CELLS/uL
same,ABSOLUTE MONOCYTE,[3],123 CELLS/uL
same,ABSOLUTE SEGMENTED NEUTROPHIL,[3],572.67 CELLS/uL
same,BASOPHIL,[3],0%
same,EOSINOPHIL,[3],0%
same,ERYTHROCYTE COUNT,[3],6.09 x10E6/uL
same,HEMATOCRIT,[3],37.23%
same,HEMOGLOBIN,[3],15.1 G/DL
same,LEUKOCYTE COUNT,[3],16.33 x10E3/uL
same,LYMPHOCYTE,[3],96%
same,MEAN CORPUSCULAR HEMOGLOBIN,[3],24.83 pg
same,MEAN CORPUSCULAR HEMOGLOBIN CONCENTRATION,[3],40.57 G/DL
same,MEAN CORPUSCULAR VOLUME,[3],61.17 fL
same,MONOCYTE,[3],0.67%
same,NEUTROPHIL,[3],3.33%
same,NUCLEATED RED BLOOD CELLS,[3],0 /100WBC
same,PLATELET COUNT,[3],1276.67 x10E3/uL
same,ALANINE AMINOTRANSFERASE,[3],60.33 u/L
same,ALBUMIN,[3],4.43 G/DL
same,ALKALINE PHOSPHATASE,[3],366.67 u/L
same,ASPARTATE AMINOTRANSFERASE,[3],101.33 u/L
same,BLOOD UREA NITROGEN,[3],17 mg/dL
same,CARBON DIOXIDE,[3],28 mmol/L
same,CHLORIDE,[3],101.67 MEQ/L
same,CHOLESTEROL,[3],88 mg/dL
same,CREATINE PHOSPHOKINASE,[3],986.67 u/L
same,CREATININE,[3],0.37 mg/dL
same,GLUCOSE,[3],131.67 mg/dL
same,LACTATE DEHYDROGENASE,[3],335 u/L
same,LIPASE,[3],12.67 u/L
same,PHOSPHORUS,[3],11.5 mg/dL
same,POTASSIUM,[3],6.17 MEQ/L
same,SODIUM,[3],143.73 MEQ/L
same,TOTAL BILIRUBIN,[3],0.23 mg/dL
same,TOTAL PROTEIN,[3],6.1 G/DL
same,URIC ACID,[3],1.2 mg/dL
same,ABSOLUTE BASOPHIL,[4],0 CELLS/uL
same,ABSOLUTE EOSINOPHIL,[4],74.67 CELLS/uL
same,ABSOLUTE LYMPHOCYTE,[4],9603.33 CELLS/uL
same,ABSOLUTE MONOCYTE,[4],53.33 CELLS/uL
same,ABSOLUTE SEGMENTED NEUTROPHIL,[4],302 CELLS/uL
same,BASOPHIL,[4],0%
same,EOSINOPHIL,[4],0.67%
same,ERYTHROCYTE COUNT,[4],5.25 x10E6/uL
same,HEMATOCRIT,[4],32.53%
same,HEMOGLOBIN,[4],13.13 G/DL
same,LEUKOCYTE COUNT,[4],10.03 x10E3/uL
same,LYMPHOCYTE,[4],95.67%
same,MEAN CORPUSCULAR HEMOGLOBIN,[4],24.97 pg
same,MEAN CORPUSCULAR HEMOGLOBIN CONCENTRATION,[4],40.37 G/DL
same,MEAN CORPUSCULAR VOLUME,[4],61.93 fL
same,MONOCYTE,[4],0.67%
same,NEUTROPHIL,[4],3%
same,NUCLEATED RED BLOOD CELLS,[4],0 /100WBC
same,PLATELET COUNT,[4],1046.33 x10E3/uL
same,ALANINE AMINOTRANSFERASE,[4],59.33 u/L
same,ALBUMIN,[4],4.03 G/DL
same,ALKALINE PHOSPHATASE,[4],341.67 u/L
same,ASPARTATE AMINOTRANSFERASE,[4],113 u/L
same,BLOOD UREA NITROGEN,[4],19 mg/dL
same,CARBON DIOXIDE,[4],25.67 mmol/L
same,CHLORIDE,[4],105 MEQ/L
same,CHOLESTEROL,[4],57 mg/dL
same,CREATINE PHOSPHOKINASE,[4],469 u/L
same,CREATININE,[4],0.22 mg/dL
same,GLUCOSE,[4],246.33 mg/dL
same,LACTATE DEHYDROGENASE,[4],616 u/L
same,LIPASE,[4],10.33 u/L
same,PHOSPHORUS,[4],12.93 mg/dL
same,POTASSIUM,[4],5.03 MEQ/L
same,SODIUM,[4],147.63 MEQ/L
same,TOTAL BILIRUBIN,[4],0.2 mg/dL
same,TOTAL PROTEIN,[4],5.5 G/DL
same,URIC ACID,[4],2.07 mg/dL
